Experimental data as given in article PMC8706998, “Lipid Nanocarriers-Loaded Nanocomposite as a Suitable Platform to Release Antibacterial and Antioxidant Agents for Immediate Dental Implant Placement Restorative Treatment” (Pharmaceutics, 2021).

Key:
[1] = QRC stability assay in aqueous environments (UV-Vis absorbance at 360 nm); type: physicochemical; conditions: for decrease of absorbance ratio at 360 nm: QRC 0.01 mg/mL, room temperature, after 6 h
Protocol: QRC degradation rate was investigated in: (i) PBS pH 7.4 containing 10% v/v of DMSO (solvent A) and (ii) citrate buffer pH 5.5 solution amended with either 10% v/v of DMSO (solvent B) or 10% v/v of DMSO and 0.002% w/v of ACys (solvent C). The prepared QRC aqueous solutions (0.01 mg/mL) were kept at room temperature for 6 h in quartz cuvette located in the UV–Vis spectrophotometer (Shimadzu 1700 instrument, Kyoto, Japan). At scheduled time intervals (10 min), QRC spectra were recorded (from 200 to 700 nm) to highlight any changes in terms of sharp and absorption peaks. Results were reported as absorbance variation at lambda max (360 nm) over time according to the following equation: Abs variation %=Abstn/Abst0×100 where Abst0 and Abstn are the QRC absorbance recorded initially and at each time point, respectively. The stability assays were performed in triplicate. Results are reported as means ± SE.

[2] = QRC and CPX solubility studies in aqueous media; type: physicochemical; conditions: for solubility at 120 min: 37 °C, pH 5.5, aqueous with cosolvent or surfactant or cyclodextrin, thermodynamic from solid, 37 ± 0.5 °C
Protocol: QRC, in excess, was added to each medium (1 mL) until precipitation occurred. […] The solubility tests were performed in triplicate. Results are reported as means ± SE.

[3] = Ex vivo permeation/penetration experiments in Franz-type cells; type: in vitro ADME, pig; conditions: from 30 mg BioQ-CPX
Protocol: Tissue specimens were obtained from the vestibular area of the retromolar trigone derived from 6–8-month-old pigs supplied by the Municipal Slaughterhouse of Villabate (Palermo, Italy) since withdrawn from animals intended for human consumption. By a refrigerated transport box, the specimens were immediately transferred to the laboratory within 1 h from animal sacrifice and surgically treated to remove both adipose and connective tissues in excess. Afterward, they were dipped for 30 min in a 5% THR (w/v) isotonic solution and then stored at −80 °C for a minimum period of one week. Before the permeation/penetration experiments, tissue samples were accurately washed to remove the cryoprotectant, and, subsequently, thermal shocked to obtain the buccal mucosa. Briefly, tissue samples were dipped for 30 s in a pre-warmed (70 °C) isotonic solution, and then the mucosa was carefully peeled off from the connective tissue, obtaining the heat-separated epithelium along with the intact basal lamina. Finally, it was equilibrated in an isotonic solution for 3 h by replacing the medium every 15 min to remove all the biological matter, which could affect the analysis, before use.
The ex vivo permeation/penetration studies were carried out using vertical Franz-type diffusion cells. Briefly, appropriate sections of buccal mucosa were mounted between the donor and the acceptor chambers filled with 1 mL of citrate buffer pH 5.5 and 15 mL of citrate buffer pH 5.5 amended with acetic acid 0.1% (v/v), Acys 0.002% (w/v), and β-CD 3% (w/v). The whole system was equilibrated at 37 ± 0.5 °C for 30 min. Afterward, the medium was removed from the donor compartment, promptly replaced with 30 mg of BioQ-CPX, and soaked with 0.2 mL of citrate buffer pH 5.5. Every 30 min, aliquots (0.5 mL) were withdrawn from the acceptor chamber and immediately replaced with the same volume of fresh acceptor fluid to maintain the sink conditions. Experiments were carried out at 37 ± 0.5 °C in the dark and under constant stirring, being stopped at different time points ranging from 1 to 6 h. The amount of permeated QRC and CPX were quantified by UV–Vis analysis. Data are reported as means ± SE (n = 6).
Briefly, the mucosa was dipped into 2 mL of methanol and warmed up to 60 °C. The extraction procedure was performed twice, and the collected extraction liquors were transferred into a 10 mL flask and brought to volume with fresh methanol. Thus, QRC and CPX amounts were determined by UV–Vis analysis. Results are reported as means ± SE.

[4] = DPPH antioxidant assay; type: biochemical; conditions: 0.08-0.01 mg/mL
Protocol: To evaluate the antioxidant activity of BioQ-CPX, the 2,2-diphenyl-1-picrylhydrazyl (DPPH) assay was performed. […] A measure of 0.5 mL of nanocomposite solution was transferred in polystyrene cuvette, added to 2.5 mL of DPPH ethanol solution (0.0295 mg/mL), and preserved by light exposure using foil. At determined time intervals (0, 0.25, 1, and 2 h), the DPPH concentration was measured spectrophotometrically at room temperature by observing the spectral range 400-800 nm and selecting λmax = 515 nm for quantification. The DPPH calibration curve was constructed analyzing DPPH ethanol solutions in the concentration range of 0.039-0.0156 mg/mL (λmax = 515 nm, regression equation: […] Results are expressed as means ± SE.

[5] = QRC stability after UV irradiation by EPR spectroscopy; type: physicochemical
Protocol: EPR measurements were carried out on 25 mg of QRC and BioQ-CPX at room temperature using a Bruker ELEXSYS E-500 spectrometer (Bruker, Billerica, MA, USA) operated at 9.8 GHz (X-band), operating at 6 mW microwave power and 0.15 mT modulation amplitude. To evaluate the effects of light exposure in the samples, UV-A/UV-B irradiator alternatively equipped with lamps of 25 W and 50 W (Light-Emitting Diode Philips, Amsterdam, The Netherlands) was used. Preliminarily, the paramagnetic center of QRC (pure drug) before and after 20 min of UV irradiation (50 W) was characterized. Afterwards, to evaluate the BioQ-CPX capability in preserving QRC from light exposure, aliquots of QRC and BioQ-CPX were irradiated by 25 W or 50 W lamps over time. […] UV irradiation was accomplished up to 60 min for all samples and EPR analysis was carried out every 5 min. Signals were normalized to the QRC mass contained in each sample. Data are reported as mean ± SE (n = 3).

[6] = cited from earlier work

Compound: O=c1c(O)c(-c2ccc(O)c(O)c2)oc2cc(O)cc(O)c12 [QRC, quercetin]
- decrease of absorbance ratio at 360 nm ([1]; PBS pH 7.4 + 10% v/v DMSO): 42%
- QRC stability over time ([1]; citrate buffer pH 5.5 + 10% v/v DMSO + 0.002% w/v ACys): improved
- decrease of absorbance ratio at 360 nm ([1]; citrate buffer pH 5.5 + 10% v/v DMSO): 25%
- solubility at 120 min ([2]; Citrate buffer pH 5.5/ACys plus DMSO 10% v/v): 29 µg/mL
- solubility at 120 min ([2]; Citrate buffer pH 5.5/ACys plus β-CD 2% w/v): 83 µg/mL
- solubility at 120 min ([2]; Citrate buffer pH 5.5/ACys plus β-CD 3% w/v): 103 µg/mL
- solubility enhancement compared to water solubility ([2]; in presence of β-CD 2%): 42 fold
- maximum amount accumulated into the mucosa ([3]; after 5 h): about 5 % of drugs dose
- amount accumulated into the mucosa ([3]; first hour from application): about 4 % of dose
- %RCD compared with BioQ-CPX samples ([4]; corresponding to QRC content of the nanocomposite samples, after 1 and 2 h): same values of %RCD and trends
- scavenging activity compared with BioQ-CPX samples ([4]; within 15 min incubation): lower
- UV exposure time until Hpp plateau (antioxidant power exhausted) ([5]; 25 W or 50 W lamp, irradiation up to 60 min): 25 min
- EPR amplitude Hpp normalized to mass ([5]; 20 min UV irradiation, 50 W lamp): 1.018 u.a.
- EPR amplitude Hpp normalized to mass ([5]; not irradiated): 0.054 u.a.
- logP [6]: 1.50
